Measured values reported in patent US12485103B2, “Insulin secretion-promoting agent and blood sugar level improver using same, diabetes improver, and food” (REFINE HOLDINGS CO., LTD., priority 2019, dated 2025).

Test system: cell lines derived from mouse pancreatic β-cells
Experiment: Insulin secretion into the culture medium measured by ELISA
Format: cell-based
Conditions: low- and high-glucose Ringer's solutions; 1 μg/mL or 10 μg/mL (any concentration); stimulated for 30 minutes
Protocol: Low- and high-glucose Ringer's solutions in the presence of 10 μg/mL pentadecanoic acid triglyceride were added in vitro to cell lines derived from mouse pancreatic β-cells. The cells were then stimulated for 30 minutes.
Separately, as a control, ethanol at concentration of 0.1% (v/v) were added to the cells.
Insulin secreted into the culture medium was measured by ELISA.
Low- and high-glucose Ringer's solutions in the presence of 1 μg/mL or 10 μg/mL pentadecanoic acid (PA in the Figure) were added in vitro to cell lines derived from mouse pancreatic β-cells. The cells were then stimulated for 30 minutes.

## CCCCCCCCCCCCCCC(=O)O [pentadecanoic acid]
  effect on insulin secretion: no effect
